Data from ChEMBL document CHEMBL5329222, “Discovery of novel tubulin CBSI (R)-9k from the indanone scaffold for the treatment of colorectal cancer” (RSC Med Chem, 2023).
Calls of active or inactive are those of the source. The rule behind the calls is not given here.

What was measured:
HCT-116 [1] = assay: Induction of cell cycle arrest in human HCT-116 cells assessed as accumulation of cells at G2 phase at 6 uM incubated for 24 hrs by flow cytometry analysis (reference value: 18.25%); type: functional
[2] = Potency index, ratio of test compound IC50 to 5-fluorouracil IC50 for cytotoxicity against HEK293 cells assessed as inhibition of cell growth incubated 1.5 hrs by MTT assay; type: toxicity, cell-based; conditions: human, read-out: Ratio IC50
HCT-116 [3] = assay: Induction of cell cycle arrest in human HCT-116 cells assessed as accumulation of cells at S phase at 1.5 uM incubated for 24 hrs by flow cytometry analysis (reference value: 3.61%); type: functional
HCT-116 [4] = assay: Inhibition of cell migration in human HCT-116 cells at 0.5 uM measured for 24 hrs by scratch wound healing assay; type: functional
SW480 = assay: Growth inhibition of human SW480 cells incubated for 1.5 hrs by MTT assay; type: functional, cell-based
HCT-116 [5] = assay: Inhibition of colony formation in human HCT-116 cells at 0.1 uM incubated for 48 hrs by crystal violet staining based analysis; type: functional; conditions: HCT-116, 48 h, values are per cent of control
HCT-116 [6] = assay: Induction of apoptosis in human HCT-116 cells assessed as late apoptotic cells at 1.5 uM incubated for 24 hrs by annexin V-FITC/7-AAD staining based flow cytometry analysis (reference value: 1.53%); type: functional
HCT-116 [7] = assay: Inhibition of cell migration in human HCT-116 cells at 5 uM measured for 24 hrs by scratch wound healing assay; type: functional
[8] = Potency index, ratio of test compound IC50 to colchicine IC50 for cytotoxicity against human HUVEC cells assessed as inhibition of cell growth incubated 1.5 hrs by MTT assay; type: toxicity, cell-based; conditions: read-out: Ratio IC50
[9] = Cytotoxicity against HEK293 cells assessed as inhibition of cell growth incubated 1.5 hrs by MTT assay; type: toxicity, cell-based; conditions: human
HCT-116 [10] = assay: Growth inhibition of human HCT-116 cells incubated for 1.5 hrs by MTT assay; type: functional, cell-based; conditions: HCT-116, 1.5 h
HCT-116 [11] = assay: Induction of apoptosis in human HCT-116 cells assessed as viable cells at 3 uM incubated for 24 hrs by annexin V-FITC/7-AAD staining based flow cytometry analysis (reference value: 90.19%); type: functional; conditions: read-out: Activity
HCT-116 [12] = assay: Induction of apoptosis in human HCT-116 cells assessed as necrotic cells at 6 uM incubated for 24 hrs by annexin V-FITC/7-AAD staining based flow cytometry analysis (reference value: 2.46%); type: functional
hERG (KCNH2) = hERG (KCNH2) (Homo sapiens, UniProt Q12809); assay: Inhibition of hERG expressed in CHO cells at 40 uM by automated patch clamp analysis relative to control; type: toxicity, cell-based; conditions: CHO cells that express hERG
Tubulin (Bos taurus) [13] = target: T1, Tubulin (Bos taurus) (UniProt Q6B856+Q862L2+Q862F3); assay: Inhibition of bovine brain tubulin polymerization at 6 uM measured at 2 to 20 mins by spectrophotometer analysis relative to control; conditions: time 2-20 min
[14] = target: Tubulin beta (Homo sapiens) (UniProt P68371+Q9H4B7+Q13509+P04350+Q3ZCM7+P07437+Q13885+Q9BVA1+Q9BUF5+A6NNZ2); assay: Binding affinity to beta-tubulin colchicine binding site in human HCT-116 cells assessed as inhibition of EBI-beta-tubulin adduct band formation at 1 to 25 uM preincubated for 2 hrs followed by EBI addition measured after 1.5 hrs by EBI competition based Western blotting analysis; type: cell-based; conditions: dose 1-25 µM, time 3.5 hrs
HCT-116 [15] = assay: Inhibition of cell migration in human HCT-116 cells at 2 uM measured for 24 hrs by scratch wound healing assay; type: functional
HCT-116 [16] = assay: Induction of cell cycle arrest in human HCT-116 cells assessed as accumulation of cells at G2/M phase at 3 uM incubated for 24 hrs by flow cytometry analysis (reference value: 18.25%); type: functional
Tubulin (Bos taurus) [17] = target: T1, Tubulin (Bos taurus); assay: Inhibition of bovine brain tubulin polymerization at 12 uM measured at 2 to 20 mins by spectrophotometer analysis relative to control; conditions: time 2-20 min
[18] = Cytotoxicity against human HUVEC cells assessed as inhibition of cell growth incubated 1.5 hrs by MTT assay; type: toxicity, cell-based
HCT-116 [19] = assay: Induction of cell cycle arrest in human HCT-116 cells assessed as accumulation of cells at G1 phase at 3 uM incubated for 24 hrs by flow cytometry analysis (reference value: 68.74%); type: functional
HCT-116 [20] = assay: Induction of apoptosis in human HCT-116 cells assessed as late apoptotic cells at 6 uM incubated for 24 hrs by annexin V-FITC/7-AAD staining based flow cytometry analysis (reference value: 1.53%); type: functional
HCT-116 [21] = assay: Induction of cell cycle arrest in human HCT-116 cells assessed as accumulation of cells at G1 phase at 6 uM incubated for 24 hrs by flow cytometry analysis (reference value: 68.74%); type: functional
HCT-116 [22] = assay: Antiproliferative activity against human HCT-116 cells assessed as inhibition of cell growth at 2 uM incubated for 2 weeks by […]; type: functional, cell-based
[23] = target: Voltage-gated inwardly rectifying potassium channel KCNH2 (Homo sapiens, UniProt Q12809); assay: Inhibition of hERG expressed in CHO cells at 40 uM by automated patch clamp analysis; type: toxicity, cell-based
HCT-116 [24] = assay: Induction of cell cycle arrest in human HCT-116 cells assessed as accumulation of cells at G2 phase at 1.5 uM incubated for 24 hrs by flow cytometry analysis (reference value: 18.25%); type: functional
HCT-116 [25] = assay: Induction of cell cycle arrest in human HCT-116 cells assessed as accumulation of cells at S phase at 6 uM incubated for 24 hrs by flow cytometry analysis (reference value: 3.61%); type: functional
HCT-116 [26] = assay: Induction of apoptosis in human HCT-116 cells assessed as early apoptotic cells at 6 uM incubated for 24 hrs by annexin V-FITC/7-AAD staining based flow cytometry analysis (reference value: 5.82%); type: functional
Tubulin = Tubulin (Bos taurus, UniProt Q6B856+Q862L2+Q862F3); assay: (§1) Inhibition of bovine brain tubulin polymerization measured at 2 to 20 mins by spectrophotometer analysis
Tubulin (Bos taurus) [27] = target: T1, Tubulin (Bos taurus); assay: as §1; conditions: time 2-20 min
[28] = Potency index, ratio of test compound IC50 to 5-fluorouracil IC50 for cytotoxicity against human HUVEC cells assessed as inhibition of cell growth incubated 1.5 hrs by MTT assay; type: toxicity, cell-based; conditions: read-out: Ratio IC50
HCT-116 [29] = assay: Induction of cell cycle arrest in human HCT-116 cells assessed as accumulation of cells at G1 phase at 1.5 uM incubated for 24 hrs by flow cytometry analysis (reference value: 68.74%); type: functional
HCT-116 [30] = assay: Induction of apoptosis in human HCT-116 cells assessed as early apoptotic cells at 1.5 uM incubated for 24 hrs by annexin V-FITC/7-AAD staining based flow cytometry analysis (reference value: 5.82%); type: functional
HCT-116 [31] = assay: Induction of apoptosis in human HCT-116 cells assessed as early apoptotic cells at 3 uM incubated for 24 hrs by annexin V-FITC/7-AAD staining based flow cytometry analysis (reference value: 5.82%); type: functional
HCT-116 [32] = assay: Induction of cell cycle arrest in human HCT-116 cells assessed as accumulation of cells at G2/M phase at 1.5 uM incubated for 24 hrs by flow cytometry analysis (reference value: 18.25%); type: functional

Sequence of Voltage-gated inwardly rectifying potassium channel KCNH2 (Q12809 whole entry): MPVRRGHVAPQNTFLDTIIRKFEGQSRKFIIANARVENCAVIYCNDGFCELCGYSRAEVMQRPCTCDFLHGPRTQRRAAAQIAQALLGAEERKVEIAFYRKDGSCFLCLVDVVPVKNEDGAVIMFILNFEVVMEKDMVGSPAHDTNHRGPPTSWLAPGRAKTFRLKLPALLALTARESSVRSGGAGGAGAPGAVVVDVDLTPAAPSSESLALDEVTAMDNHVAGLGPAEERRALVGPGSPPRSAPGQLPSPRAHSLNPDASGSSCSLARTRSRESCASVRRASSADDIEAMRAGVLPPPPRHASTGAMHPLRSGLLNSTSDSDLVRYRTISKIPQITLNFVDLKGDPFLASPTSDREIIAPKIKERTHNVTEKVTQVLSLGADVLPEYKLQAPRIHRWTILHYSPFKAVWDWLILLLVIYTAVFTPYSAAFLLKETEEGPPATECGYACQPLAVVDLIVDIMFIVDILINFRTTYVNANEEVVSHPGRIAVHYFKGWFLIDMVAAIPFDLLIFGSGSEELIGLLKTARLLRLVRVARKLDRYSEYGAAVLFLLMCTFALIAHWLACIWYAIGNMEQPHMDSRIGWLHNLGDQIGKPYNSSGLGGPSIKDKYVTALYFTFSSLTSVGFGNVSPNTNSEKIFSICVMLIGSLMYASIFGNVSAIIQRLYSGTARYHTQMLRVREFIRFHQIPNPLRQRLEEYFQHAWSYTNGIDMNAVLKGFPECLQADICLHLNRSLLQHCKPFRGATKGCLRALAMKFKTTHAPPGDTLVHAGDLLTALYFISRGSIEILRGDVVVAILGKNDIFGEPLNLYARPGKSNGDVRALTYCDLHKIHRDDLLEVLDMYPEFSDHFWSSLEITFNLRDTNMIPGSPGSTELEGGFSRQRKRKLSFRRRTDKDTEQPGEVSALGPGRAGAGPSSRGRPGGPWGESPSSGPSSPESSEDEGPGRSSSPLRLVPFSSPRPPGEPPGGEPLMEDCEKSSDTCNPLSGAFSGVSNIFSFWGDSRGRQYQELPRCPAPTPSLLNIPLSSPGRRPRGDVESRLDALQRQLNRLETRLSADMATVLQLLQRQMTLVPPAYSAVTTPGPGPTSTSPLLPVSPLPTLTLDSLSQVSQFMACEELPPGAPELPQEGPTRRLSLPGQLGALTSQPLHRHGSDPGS
Sequence of hERG (KCNH2) (Q12809 whole entry): as above

IC50 (SW480): 1.31 µM
IC50 (HCT-116 [10]): 0.26 µM
inhibition (Tubulin (Bos taurus) [13]): 54%
Activity [14]: Active
inhibition (Tubulin (Bos taurus) [17]): 66%
IC50 (Tubulin): 6.1 µM
inhibition (Tubulin (Bos taurus) [27]): Dose-Dependent Effect
Structure (SMILES): CCOc1ccc([C@H]2CC(=O)c3cc(OC)c(OC)c(OC)c32)cc1F
Activity (HCT-116 [1]): 47.34%
selectivity ratio at 1.5 h [2]: 1.39
Activity (HCT-116 [3]): 7.57%
inhibition at 0.5 µM (HCT-116 [4]): 21%
growth, % of control at 0.1 µM (HCT-116 [5]): 57.9%
Activity (HCT-116 [6]): 2.85%
inhibition at 5 µM (HCT-116 [7]): 80%
selectivity ratio at 1.5 h [8]: 35
IC50 at 1.5 h [9]: 7.45 µM
viability at 3 µM (HCT-116 [11]): 73%
Activity (HCT-116 [12]): 4.48%
inhibition at 40 µM (hERG (KCNH2)): 42%
inhibition at 2 µM (HCT-116 [15]): 55%
Activity (HCT-116 [16]): 28.73%
IC50 at 1.5 h [18]: 15 µM
Activity (HCT-116 [19]): 62.85%
Activity (HCT-116 [20]): 13.77%
Activity (HCT-116 [21]): 35.2%
Activity (HCT-116 [22]): Active
IC50 [23]: > 40 µM
Activity (HCT-116 [24]): 24.4%
Activity (HCT-116 [25]): 5.1%
Activity (HCT-116 [26]): 21.2%
selectivity ratio at 1.5 h [28]: 1.6
Activity (HCT-116 [29]): 65.69%
Activity (HCT-116 [30]): 8.12%
Activity (HCT-116 [31]): 18.75%
Activity (HCT-116 [32]): 24.41%
